{
  "source": "paper PMC9950205",
  "about": "“Efficacy, safety, and pharmacokinetics of teduglutide in adult Japanese patients with short bowel syndrome and intestinal failure: two phase III studies with an extension” (Surgery Today, 2022)",
  "system": "adult Japanese patients with SBS-IF",
  "assay": "Safety: treatment-emergent adverse events (TEAEs, TESAEs)",
  "type": "in vivo",
  "conditions": "> 24 weeks (SHP633-307 and TED-C14-004); 0.05 mg/kg/day",
  "text": "Safety analyses included the monitoring of adverse events (AEs), body weight, BMI, vital signs, 12-lead electrocardiogram (ECG), serum biochemistry, hematology, and presence of antibodies to teduglutide. AEs were coded using the Medical Dictionary for Regulatory Activities versions 17.1 (TED-C14-004) and 21.0 (SHP633-306 and SHP633-307). Specifically, AEs were treatment-emergent AEs (TEAEs), defined as any unfavorable and unintended sign (including any abnormal laboratory finding), symptom, or disease that occurred during treatment with teduglutide, whether or not the event was considered to be related to the study drug by the clinical study investigator. AEs were also categorized as mild, moderate, or severe. […] AEs were considered related to treatment with teduglutide, or its administration, based on the investigator's medical judgment.",
  "data": [
    {"smiles": "CC[C@H](C)[C@H](NC(=O)[C@H](Cc1ccccc1)NC(=O)[C@H](CC(=O)O)NC(=O)[C@H](CCCNC(=N)N)NC(=O)[C@H](C)NC(=O)[C@H](C)NC(=O)[C@H](CC(C)C)NC(=O)[C@H](CC(N)=O)NC(=O)[C@H](CC(=O)O)NC(=O)[C@H](CC(C)C)NC(=O)[C@@H](NC(=O)[C@@H](NC(=O)[C@H](CC(N)=O)NC(=O)[C@H](CCSC)NC(=O)[C@H](CCC(=O)O)NC(=O)[C@H](CC(=O)O)NC(=O)[C@H](CO)NC(=O)[C@H](Cc1ccccc1)NC(=O)[C@H](CO)NC(=O)CNC(=O)[C@H](CC(=O)O)NC(=O)CNC(=O)[C@@H](N)Cc1c[nH]cn1)[C@@H](C)O)[C@@H](C)CC)C(=O)N[C@@H](CC(N)=O)C(=O)N[C@@H](Cc1c[nH]c2ccccc12)C(=O)N[C@@H](CC(C)C)C(=O)N[C@H](C(=O)N[C@@H](CCC(N)=O)C(=O)N[C@H](C(=O)N[C@@H](CCCCN)C(=O)N[C@H](C(=O)N[C@H](C(=O)N[C@@H](CC(=O)O)C(=O)O)[C@@H](C)O)[C@@H](C)CC)[C@@H](C)O)[C@@H](C)CC", "note": "[teduglutide]", "values": [
      {"measurement": "Abdominal distension: Events", "value": 2, "unit": "n"},
      {"measurement": "Abdominal distension: Patients", "value": "2 (13.3) n (%)"},
      {"measurement": "Abdominal pain: Events", "value": 1, "unit": "n"},
      {"measurement": "Abdominal pain: Patients", "value": "1 (6.7) n (%)"},
      {"measurement": "Anal abscess: Events", "value": 3, "unit": "n"},
      {"measurement": "Anal abscess: Patients", "value": "3 (20.0) n (%)"},
      {"measurement": "Anemia: Events", "value": 0, "unit": "n"},
      {"measurement": "Anemia: Patients", "value": "0 n (%)"},
      {"measurement": "Any TEAE: Events", "value": 199, "unit": "n"},
      {"measurement": "Any TEAE: Patients", "value": "11 (73.3) n (%)"},
      {"measurement": "Arthralgia: Events", "value": 5, "unit": "n"},
      {"measurement": "Arthralgia: Patients", "value": "5 (33.3) n (%)"},
      {"measurement": "Back pain: Events", "value": 1, "unit": "n"},
      {"measurement": "Back pain: Patients", "value": "1 (6.7) n (%)"},
      {"measurement": "Blood and lymphatic system disorders: Events", "value": 0, "unit": "n"},
      {"measurement": "Blood and lymphatic system disorders: Patients", "value": "0 n (%)"},
      {"measurement": "Catheter site infection: Events", "value": 1, "unit": "n"},
      {"measurement": "Catheter site infection: Patients", "value": "1 (6.7) n (%)"},
      {"measurement": "Catheter site pain: Events", "value": 4, "unit": "n"},
      {"measurement": "Catheter site pain: Patients", "value": "2 (13.3) n (%)"},
      {"measurement": "Dehydration: Events", "value": 2, "unit": "n"},
      {"measurement": "Dehydration: Patients", "value": "2 (13.3) n (%)"},
      {"measurement": "Dermatitis contact: Events", "value": 4, "unit": "n"},
      {"measurement": "Dermatitis contact: Patients", "value": "4 (26.7) n (%)"},
      {"measurement": "Device occlusion (central venous catheter for PS): Events", "value": 3, "unit": "n"},
      {"measurement": "Device occlusion (central venous catheter for PS): Patients", "value": "2 (13.3) n (%)"},
      {"measurement": "Device-related infection (central venous catheter for PS): Events", "value": 24, "unit": "n"},
      {"measurement": "Device-related infection (central venous catheter for PS): Patients", "value": "7 (46.7) n (%)"},
      {"measurement": "Diarrhea: Events", "value": 4, "unit": "n"},
      {"measurement": "Diarrhea: Patients", "value": "3 (20.0) n (%)"},
      {"measurement": "Dry skin: Events", "value": 1, "unit": "n"},
      {"measurement": "Dry skin: Patients", "value": "1 (6.7) n (%)"},
      {"measurement": "Enteritis: Events", "value": 1, "unit": "n"},
      {"measurement": "Enteritis: Patients", "value": "1 (6.7) n (%)"},
      {"measurement": "Enterocolitis: Events", "value": 2, "unit": "n"},
      {"measurement": "Enterocolitis: Patients", "value": "2 (13.3) n (%)"},
      {"measurement": "Eye disorder: Events", "value": 5, "unit": "n"},
      {"measurement": "Eye disorder: Patients", "value": "1 (6.7) n (%)"},
      {"measurement": "Gastrointestinal disorders: Events", "value": 33, "unit": "n"},
      {"measurement": "Gastrointestinal disorders: Patients", "value": "8 (53.3) n (%)"},
      {"measurement": "General disorders and administration site conditions: Events", "value": 16, "unit": "n"},
      {"measurement": "General disorders and administration site conditions: Patients", "value": "5 (33.3) n (%)"},
      {"measurement": "Headache: Events", "value": 11, "unit": "n"},
      {"measurement": "Headache: Patients", "value": "5 (33.3) n (%)"},
      {"measurement": "Hematuria: Events", "value": 2, "unit": "n"},
      {"measurement": "Hematuria: Patients", "value": "2 (13.3) n (%)"},
      {"measurement": "Hemorrhage subcutaneous: Events", "value": 2, "unit": "n"},
      {"measurement": "Hemorrhage subcutaneous: Patients", "value": "2 (13.3) n (%)"},
      {"measurement": "Hepatobiliary disorders: Events", "value": 2, "unit": "n"},
      {"measurement": "Hepatobiliary disorders: Patients", "value": "2 (13.3) n (%)"},
      {"measurement": "Hypersensitivity: Events", "value": 2, "unit": "n"},
      {"measurement": "Hypersensitivity: Patients", "value": "2 (13.3) n (%)"},
      {"measurement": "Hypozincemia: Events", "value": 1, "unit": "n"},
      {"measurement": "Hypozincemia: Patients", "value": "1 (6.7) n (%)"},
      {"measurement": "Immune system disorders: Events", "value": 2, "unit": "n"},
      {"measurement": "Immune system disorders: Patients", "value": "2 (13.3) n (%)"},
      {"measurement": "Infections and infestations: Events", "value": 62, "unit": "n"},
      {"measurement": "Infections and infestations: Patients", "value": "10 (66.7) n (%)"},
      {"measurement": "Influenza: Events", "value": 18, "unit": "n"},
      {"measurement": "Influenza: Patients", "value": "5 (33.3) n (%)"},
      {"measurement": "Injection site reaction: Events", "value": 0, "unit": "n"},
      {"measurement": "Injection site reaction: Patients", "value": "0 n (%)"},
      {"measurement": "Injury, poisoning, and procedural complications: Events", "value": 1, "unit": "n"},
      {"measurement": "Injury, poisoning, and procedural complications: Patients", "value": "1 (6.7) n (%)"},
      {"measurement": "Insomnia: Events", "value": 2, "unit": "n"},
      {"measurement": "Insomnia: Patients", "value": "2 (13.3) n (%)"},
      {"measurement": "Investigations: Events", "value": 5, "unit": "n"},
      {"measurement": "Investigations: Patients", "value": "2 (13.3) n (%)"},
      {"measurement": "Metabolism and nutrition disorders: Events", "value": 7, "unit": "n"},
      {"measurement": "Metabolism and nutrition disorders: Patients", "value": "5 (33.3) n (%)"},
      {"measurement": "Musculoskeletal and connective tissue disorders: Events", "value": 10, "unit": "n"},
      {"measurement": "Musculoskeletal and connective tissue disorders: Patients", "value": "6 (40.0) n (%)"},
      {"measurement": "Nasopharyngitis: Events", "value": 18, "unit": "n"},
      {"measurement": "Nasopharyngitis: Patients", "value": "5 (33.3) n (%)"},
      {"measurement": "Nausea: Events", "value": 7, "unit": "n"},
      {"measurement": "Nausea: Patients", "value": "3 (20.0) n (%)"},
      {"measurement": "Nervous system disorders: Events", "value": 19, "unit": "n"},
      {"measurement": "Nervous system disorders: Patients", "value": "7 (46.7) n (%)"},
      {"measurement": "Oropharyngeal pain: Events", "value": 3, "unit": "n"},
      {"measurement": "Oropharyngeal pain: Patients", "value": "3 (20.0) n (%)"}
    ]}
  ]
}
